# Experimental data from patent publication US9701689B2, “Substituted pyridines and pyridazines as CCR10 receptor inhibitors” (KYOWA HAKKO KIRIN CO., LTD., priority 2012, dated 2017).
# Biological target: T1, human CCR10 (Homo sapiens, UniProt P46092)
# T1 construct: expressed in transfected cells; host or cells: KJMGER8 cells (Namalwa cell-derived line), beta-estradiol-induced; hCCR10G16 cells
# T1 sequence (P46092 1-362): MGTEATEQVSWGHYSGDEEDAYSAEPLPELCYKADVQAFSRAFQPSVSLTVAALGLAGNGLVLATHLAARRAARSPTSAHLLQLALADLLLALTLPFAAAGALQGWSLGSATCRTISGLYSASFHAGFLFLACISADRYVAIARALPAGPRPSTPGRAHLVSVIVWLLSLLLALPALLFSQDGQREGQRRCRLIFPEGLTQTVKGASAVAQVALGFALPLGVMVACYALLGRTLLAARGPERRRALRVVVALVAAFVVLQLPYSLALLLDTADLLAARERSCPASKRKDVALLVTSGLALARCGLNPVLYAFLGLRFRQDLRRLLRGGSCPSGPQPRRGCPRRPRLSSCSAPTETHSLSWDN
# Experiment: CCR10 antagonistic effect: calcium assay of human CCR10 (CTACK-induced increase of intracellular calcium in hCCR10G16 cells)
# Format: cell-based
# Conditions: at a concentration of not more than 1000 nmol/L; human CCR10-expressing hCCR10G16 cells, 300 nmol/L CTACK added; read-out: inhibition of increase in the calcium ion concentration
# Summary of the method: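 Inhibition of CTACK-evoked calcium flux (max minus min Fluo-3 fluorescence over ~5 min, FDSS) was calculated against control in β-estradiol-induced human CCR10/Gα16 KJMGER8 cells, after 30 min compound preincubation at 37 °C; CTACK added from a 300 nmol/L solution.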
row,inhibition at up to 1 µM [%],SMILES
1,≥ 50,"COC(=O)C1(c2ccccc2)CCN(C(=O)c2cnc(S(N)(=O)=O)c(Cl)c2Nc2cccc(C)c2)CC1 [Compound 201, methyl 1-[5-chloro-6-sulfamoyl-4-(m-tolylamino)nicotinoyl]-4-phenylpiperidine-4-carboxylate]"
2,≥ 50,"Cc1cccc(Nc2c(C(=O)N3CC=C(c4ccc(F)cc4)CC3)cnc(S(N)(=O)=O)c2Cl)c1 [Compound 202, 3-chloro-5-[4-(4-fluorophenyl)-1,2,3,6-tetrahydropyridine-1-carbonyl]-4-(m-tolylamino)pyridine-2-sulfonamide]"
3,≥ 50,"Cc1cccc(Nc2c(C(=O)N3CCC(C(N)=O)(c4ccccc4)CC3)cnc(S(N)(=O)=O)c2Cl)c1 [Compound 203, 1-[5-chloro-6-sulfamoyl-4-(m-tolylamino)nicotinoyl]-4-phenylpiperidine-4-carboxamide]"
4,≥ 50,"CCS(=O)(=O)c1ncc(C(=O)N2CCC(c3ccc(F)cc3)CC2)c(Nc2ccccc2C)c1Cl [Compound 204, [5-chloro-6-(ethylsulfonyl)-4-(o-tolylamino)pyridin-3-yl][4-(4-fluorophenyl)piperidin-1-yl]methanone]"
5,≥ 50,"Cc1ccccc1Nc1c(C(=O)N2CCC(c3ccc(F)cc3)CC2)cnc(S(=O)(=O)c2ccccc2)c1Cl [Compound 205, [5-chloro-6-(phenylsulfonyl)-4-(o-tolylamino)pyridin-3-yl][4-(4-fluorophenyl)piperidin-1-yl]methanone]"
6,≥ 50,"Cc1cccc(Nc2c(C(=O)N3CCN(c4ccccc4Cl)CC3)cnc(S(N)(=O)=O)c2Cl)c1 [Compound 206, 3-chloro-5-[4-(2-chlorophenyl)piperazine-1-carbonyl]-4-(m-tolylamino)pyridine-2-sulfonamide]"
7,≥ 50,"Cc1c(S(N)(=O)=O)ncc(C(=O)N2CCC(c3ccc(F)cc3)CC2)c1NC1CCCCC1 [Compound 207, 4-(cyclohexylamino)-5-[4-(4-fluorophenyl)piperidine-1-carbonyl]-3-methylpyridine-2-sulfonamide]"
8,≥ 50,"COC1(c2ccc(F)cc2)CCN(C(=O)c2cnc(S(N)(=O)=O)c(Cl)c2Nc2cccc(C)c2)CC1 [Compound 208, 3-chloro-5-[4-(4-fluorophenyl)-4-methoxypiperidine-1-carbonyl]-4-(m-tolylamino)pyridine-2-sulfonamide]"
9,≥ 50,"Cc1cccc(Nc2c(C(=O)N3CCN(c4ccc(F)cc4)C(=O)C3)cnc(S(N)(=O)=O)c2Cl)c1 [Compound 209, 3-chloro-5-[4-(4-fluorophenyl)-3-oxopiperazine-1-carbonyl]-4-(m-tolylamino)pyridine-2-sulfonamide]"
10,≥ 50,"Cc1cccc(Sc2c(C(=O)N3CCC(c4ccc(F)cc4)CC3)cnc(S(N)(=O)=O)c2Cl)c1 [Compound 210, 3-chloro-5-[4-(4-fluorophenyl)piperidine-1-carbonyl]-4-(m-tolylthio)pyridine-2-sulfonamide]"
11,≥ 50,"NS(=O)(=O)c1ncc(C(=O)N2CCC(c3ccc(F)cc3)CC2)c(NC(=O)c2ccccc2)c1Cl [Compound 211, N-{3-chloro-5-[4-(4-fluorophenyl)piperidine-1-carbonyl]-2-sulfamoylpyridin-4-yl}benzamide]"
12,≥ 50,"NS(=O)(=O)c1ncc(C(=O)N2CCC(c3ccc(F)cc3)CC2)c(Cc2ccccc2)c1Cl [Compound 212, 4-benzyl-3-chloro-5-[4-(4-fluorophenyl)piperidine-1-carbonyl]pyridine-2-sulfonamide]"
13,≥ 50,"Cc1cccc(Nc2c(C(=O)N3CC4CN(c5ccc(F)cc5)CC4C3)cnc(S(N)(=O)=O)c2Cl)c1 (centres unmarked) [Compound 213, 3-chloro-5-[5-(4-fluorophenyl)octahydropyrrolo[3,4-c]pyrrole-2-carbonyl]-4-(m-tolylamino)pyridine-2-sulfonamide]"
14,≥ 50,"Cc1c(S(N)(=O)=O)ncc(C(=O)N2CCC(c3ccc(F)cc3)CC2)c1NCC1CCOCC1 [Compound 214, 5-[4-(4-fluorophenyl)piperidine-1-carbonyl]-3-methyl-4-[(tetrahydro-2H-pyran-4-yl)methylamino]pyridine-2-sulfonamide]"
15,≥ 50,"Cc1c(S(=O)(=O)Nc2ccon2)ncc(C(=O)N2CCC(c3ccc(F)cc3)CC2)c1NC1CCCCC1 [Compound 215, 4-(cyclohexylamino)-5-[4-(4-fluorophenyl)piperidine-1-carbonyl]-N-(isoxazol-3-yl)-3-methylpyridine-2-sulfonamide]"
16,≥ 50,"CC(=O)C1(c2ccc(F)cc2)CCN(C(=O)c2cnc(S(N)(=O)=O)c(Cl)c2Nc2cccc(C)c2)CC1 [Compound 216, 5-[4-acetyl-4-(4-fluorophenyl)piperidine-1-carbonyl]-3-chloro-4-(m-tolylamino)pyridine-2-sulfonamide]"
17,≥ 50,"NS(=O)(=O)c1ncc(C(=O)N2CCC(c3ccc(F)cc3)CC2)c(N[C@H]2C[C@@H]3CC[C@H]2O3)c1Cl [Compound 217, 4-((1R,2S,4S)-7-oxabicyclo[2.2.1]heptan-2-ylamino)-3-chloro-5-[4-(4-fluorophenyl)piperidine-1-carbonyl]pyridine-2-sulfonamide]"
18,≥ 50,"Cc1cccc(Nc2c(C(=O)N3CCC4(CC3)CNc3ccccc3C4)cnc(S(N)(=O)=O)c2Cl)c1 [Compound 218, 3-chloro-5-[2′,4′-dihydro-1′H-spiro[piperidine-4,3′-quinoline]-1-ylcarbonyl]-4-(m-tolylamino)pyridine-2-sulfonamide]"
19,≥ 50,"Cc1ncc(Nc2c(C(=O)N3CCC(c4ccc(F)cc4)CC3)cnc(S(N)(=O)=O)c2Cl)c(C)n1 [Compound 219, 3-chloro-4-(2,4-dimethylpyrimidin-5-ylamino)-5-[4-(4-fluorophenyl)piperidine-1-carbonyl]pyridine-2-sulfonamide]"
20,≥ 50,"Cc1c(S(N)(=O)=O)ncc(C(=O)N2CCC(c3ccc(F)cc3)CC2)c1NC(C)c1ccccc1 (centres unmarked) [Compound 220, 5-[4-(4-fluorophenyl)piperidine-1-carbonyl]-3-methyl-4-(1-phenylethylamino)pyridine-2-sulfonamide]"
21,≥ 50,"Cc1c(S(N)(=O)=O)ncc(C(=O)N2CCC(c3ccc(F)cc3)CC2)c1NCc1cccnc1 [Compound 221, 5-[4-(4-fluorophenyl)piperidine-1-carbonyl]-3-methyl-4-(pyridin-3-ylmethylamino)pyridine-2-sulfonamide]"
22,≥ 50,"Cc1c(S(=O)(=O)Nc2ccon2)ncc(C(=O)N2CCC(c3ccc(F)cc3)CC2)c1NCCc1ccccc1 [Compound 222, 5-[4-(4-fluorophenyl)piperidine-1-carbonyl]-N-(isoxazol-3-yl)-3-methyl-4-(phenethylamino)pyridine-2-sulfonamide]"
23,≥ 50,"Cc1c(S(=O)(=O)Nc2ccon2)ncc(C(=O)N2CCC(c3ccc(F)cc3)CC2)c1NCc1ccccn1 [Compound 223, 5-[4-(4-fluorophenyl)piperidine-1-carbonyl]-N-(isoxazol-3-yl)-3-methyl-4-(pyridin-2-ylmethylamino)pyridine-2-sulfonamide]"
